# Assay: gradient 5% acetonitrile 3 min, to 50% in 2 min, to 85% in 15 min, held 3 min, 100 µL/min
# Details: column: Zorbax Extend-C18 2.1 x 50 mm; eluents: water / acetonitrile, 0.1% formic acid
# In short: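 Using water and acetonitrile that each contained 0.1% formic acid, mixtures of ~100 pure standards were separated at 100 μL/min on a Zorbax Extend-C18 column (2.1 × 50 mm, 1.8 μm). The HPLC fed a quadrupole time-of-flight mass spectrometer working in positive and negative ionization mode, with dead and dwell volumes of 40 μL and 900 μL. Data were acquired over 3 months. Retention time was read from computationally picked adduct peaks after manual inspection of each.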
row,Compound,RP-LC retention time [s]
1,Cc1ccc(-c2nc(Cn3cccc3C(=O)NCc3cccs3)no2)cc1,1040
2,CCOc1ccc(NC(=O)C2CCN(c3cc(Oc4ccc(CC)cc4)ncn3)CC2)cc1,1080
3,Cc1cc(C)n(CC(=O)NC(C)c2ccccc2)c1-c1nc(C2CC2)no1 (stereo not given),914
4,O=C(Cn1c(=O)n(Cc2cccnc2)c(=O)c2ncccc21)c1ccc2c(c1)OCCO2,554
5,CCc1ccc(NC(=O)Cn2ccc3ccc(-c4nnc(C)o4)cc32)cc1,885
6,COc1cc(C(O)c2nc3ccccc3s2)cc(OC)c1OC (stereo not given),826
7,COc1ccc(OC)c(-c2cc(C(=O)NCC#CCN3CCc4ccccc4C3)[nH]n2)c1,592
8,c1ccc(-c2nc(-c3cccc(-c4ccn[nH]4)c3)no2)nc1,739
9,FC(F)(F)c1ccccc1-n1ccnc1,633
10,CCc1noc(NC(C)=O)c1-c1ccc(C)c(S(=O)(=O)Nc2c(C)cccc2C)c1,861
11,CCc1cc2c(cc(C(=O)NCc3cccs3)n2C)s1,1010
12,Cc1cc(C(=O)N2C[C@@H](C)[C@H](c3nc(-c4ccncc4)no3)C2)n[nH]1,619
13,Cc1ccc(NC(=O)c2cc3c(=O)n(C)c4ccccc4n3n2)cc1F,975
14,CCC(=O)NC(C)c1nc(-c2ccc(Cl)cc2)no1 (stereo not given),823
15,CNc1nc(Nc2ccc(OC)cc2)nc2ccccc12,641
16,Cc1ccccc1CNC(=O)c1sc(-c2cn(C)c3ncccc23)nc1C,928
17,Cc1csc(-c2cc(S(=O)(=O)Nc3ccc(F)c(Cl)c3)c(C)s2)n1,1070
18,Cc1nc(CC(=O)Nc2nc(-c3ccccc3)c(C)s2)cs1,894
19,CCCCCN1CC(=O)N(c2ccc(OC)cc2)[C@@H]2CS(=O)(=O)C[C@@H]21,708
20,CCC(Oc1ccc(=O)n(-c2ccc(F)cc2)n1)C(=O)NCc1ccc2c(c1)OCO2 (stereo not given),752

row,Compound,RP-LC retention time [s]
1,COc1ccc(N2C(=O)C3N=NN(c4cccc(OC)c4)C3C2=O)cc1 (stereo not given),905
2,CCn1cc(-c2ccc(Cl)cc2)cc1C(=O)NCc1cccnc1,738
3,COCC1CN(Cc2cc3ccc(C)cc3[nH]c2=O)CCC1(F)F (stereo not given),629
4,Cc1noc(-c2ccnc(-n3cnc(C(=O)NCCc4ccccc4)c3)c2)n1,823
5,Cc1cnc(-c2ccccc2)n1CCNS(=O)(=O)c1ccc(C#N)cc1,634
6,C[C@H]1CN(C(=O)c2c(F)cccc2F)C[C@@H]1c1nc(-c2ccncc2)no1,798
7,CCc1ccc(CNC(=O)c2nc3cccnc3n(CC)c2=O)cc1,915
8,CCS(=O)(=O)c1ccc2c(c1)N(Cc1nc(-c3cccc(OC)c3)no1)C(=O)CO2,883
9,CCOc1ccccc1NC(=O)NCCCn1c(C(F)(F)F)nc2cccnc21,856
10,C#CCCNC(=O)c1cccn(C)c1=O,572
11,CCN(C(=O)c1ccc2c(c1)OCO2)c1nc(-c2ccccc2)cs1,1200
12,CCCCN1C(=O)C(C)(C(=O)Nc2ccc(OCC)cc2)Oc2cccnc21 (stereo not given),1060
13,Cc1ccccc1CNC(=O)C1(C)Oc2cccnc2NC1=O (stereo not given),702
14,O=c1c2sccc2n(Cc2nc(-c3ccc(F)c(Cl)c3)no2)c(=O)n1-c1cccc(F)c1,1070
15,COCc1c(C(=O)N2CC(F)(F)C[C@H]2c2nc(C)no2)noc1C,778
16,Cc1nn2c(CNS(=O)(=O)Cc3ccc(Cl)cc3)c(-c3ccccc3)nc2s1,954
17,Cc1cc(C)c(-c2csc(Nc3ccccn3)n2)cc1C,1030
18,COc1cc2c(cc1OC)C(Nc1nc(-c3ccccc3)cs1)=NC(C)(C)C2,878
19,CCCCN1C(=O)C(CC(=O)NCC(C)C)Sc2ncccc21 (stereo not given),784

# Now from value to compound:
row,RP-LC retention time [s],Compound
1,1150,CCOC(=O)c1cnc(N2CCN(c3ccccc3OC)CC2)c2ccccc12
2,764,CCc1nc(NC(=O)Cn2nc3c(cc2=O)CCCC3)sc1C
3,598,O=C(NCc1cccnc1)C1CC(=O)N(c2ccc3c(c2)CCN3C(=O)C2CCC2)C1 (stereo not given)
4,744,COc1ccccc1NS(=O)(=O)c1cc(N)ccc1N1CCCCC1
5,945,CC(C)(C)c1cccc(NC(=O)C2CCc3nc(N4CCOCC4)ncc3C2)c1 (stereo not given)
6,949,Cn1cc(C2=CCN(S(=O)(=O)c3ccc(F)cc3)CC2)c2cccnc21
7,1020,CCOc1ccc(CC(=O)N2CCCn3nc(-c4ccc(Cl)cc4)cc3C2)cc1
8,1360,Cc1cc(Cl)ccc1NS(=O)(=O)c1cc(-c2nc(C(C)(C)C)cs2)cs1
9,640,CC(C)n1cnnc1CC1CN(C(=O)Nc2ccccc2Cl)C1
10,978,Cc1nc(-c2csc(S(=O)(=O)N3CCCC(C(=O)Nc4cccc(F)c4)C3)c2)no1 (stereo not given)
11,645,Cc1cc(N2CCN(C)CC2)nc2ccc(NC(=S)N3CCN(c4ccc(Cl)cc4)CC3)cc12
12,917,COCc1cc(=O)n(CC(=O)Nc2ccc(F)c(Cl)c2)c(N2CCOCC2)n1
13,876,CC1CCC(NC(=O)C2CCN(S(=O)(=O)c3ccc4c(c3)NC(=O)C(C)O4)CC2)CC1 (stereo not given)
14,701,CCOC(=O)c1ccc(Nc2c(C(=O)N3CCCCC3CC)cnc3nc(C)ccc23)cc1 (stereo not given)
15,1090,Cc1ccc(Cn2c(=O)c(N3CCCC(C(=O)NCCc4ccco4)C3)nc3ccccc32)cc1 (stereo not given)
16,1010,CC(C)CCn1nc2c(S(=O)(=O)N3CCc4ccccc4C3)cccn2c1=O
17,799,CC1CCN(C(=O)C2=NN(C)c3ccccc3S2(=O)=O)CC1
18,902,CC1=C(c2ccc(C)cc2)S(=O)(=O)N=C1N1CCC(NC(=O)C2CCCO2)CC1 (stereo not given)
19,603,CC(C)c1nc2cccnc2n1CCN1CCN(C(=O)Nc2ccccc2Br)CC1
20,581,CC(=O)Nc1ccc(S(=O)(=O)N2CCC(CC(=O)N3CCN(c4ccccn4)CC3)CC2)cc1
21,743,CC(=O)N1c2ccc(S(=O)(=O)N3CCCCC3)cc2CC1C(=O)N1CCCC1 (stereo not given)
22,831,CC(C)CCNC(=O)c1cccc2c1CCN2C(=O)C1CC1
23,718,CCc1ccccc1NC(=O)Cn1ncc2c(c1=O)N(C1CC1)C(=O)CS2
24,601,O=C([C@@H]1C[C@H](F)CN1C(=O)Cc1ccc(F)cc1)N1CCCCC1
25,691,CC(C)NC(=O)C1CC(=O)N(CCc2c[nH]c3ccc(F)cc23)C1 (stereo not given)
26,650,Cc1cc(OCC(=O)NCc2ccco2)nc(N2CCC(C)CC2)n1

row,RP-LC retention time [s],Compound
1,990,O=C(Nc1ccc(F)c(F)c1)C1CCCN(S(=O)(=O)Cc2ccc(F)cc2)C1 (stereo not given)
2,769,Cc1ccc(Cc2nc(CCNC(=O)C3CCN(S(=O)(=O)c4ccc(C)cc4)CC3)n[nH]2)cc1
3,718,O=C1CCN(C(=O)COc2ccccc2Cl)c2ccccc2N1
4,634,CNC(=O)C1CCCN(c2nc3ncn(CC(=O)Nc4ccc(F)cc4)c(=O)c3s2)C1 (stereo not given)
5,991,O=C(c1ccc(OC(F)(F)F)cc1)N1CCN(c2cc(-c3ccc(Cl)cc3)[nH]n2)CC1
6,558,O=C(c1ccn[nH]1)N1CCC[C@H]1c1nc(C2CCOCC2)n[nH]1
7,922,O=c1n(Cc2ccc3c(c2)OCO3)nc2c(S(=O)(=O)N3CCc4ccccc4C3)cccn12
8,667,CCOC(=O)N1CCN(C(c2ccc(F)cc2)c2sc3ncnn3c2O)CC1 (stereo not given)
9,617,O=C(Nc1ccccc1)c1nnc(CCC(=O)N2CCN(c3ccccn3)CC2)s1
10,760,O=C(C1CCN(c2nnc(-c3ccccc3)o2)CC1)N1CCCCC1
11,784,O=C(CNS(=O)(=O)Cc1ccccc1)N1CCOC(c2ccccc2)C1 (stereo not given)
12,768,CN(C)C(=O)c1csc(S(=O)(=O)N2CCC(C(=O)N3CCN(c4ccccc4)CC3)CC2)c1
13,714,COc1cccc(CNS(=O)(=O)c2ccc3c(c2)CCCC(=O)N3)c1
14,984,O=C(NC1CCCCC1)N1CCCC1c1nc(-c2cccc(F)c2)no1 (stereo not given)
15,570,CCN1CCN(C(=O)C2CCN(c3nc4cccnc4s3)CC2)CC1
16,770,Cc1ccc(CNC(=O)N2CCCC(OCc3nc(C)no3)C2)cc1 (stereo not given)
17,709,CCCC(=O)Nc1ccc2c(c1)CN(C(=O)C1CC1)C(C(=O)N(C)C)C2 (stereo not given)
18,533,O=C(CCNc1cnc2cnccn12)NCc1ccc(N2CCCCC2)cc1
19,928,CCc1cccc(NC(=O)N2CCc3c(c(-c4nc(C5CC5)no4)nn3C)C2)c1
20,692,CC(=O)N1CCc2cc(N3CC(C(=O)Nc4ccccc4C)CC3=O)ccc21 (stereo not given)
21,720,CN1CCN(S(=O)(=O)c2c[nH]c(=O)[nH]c2=O)CC1
22,655,CNC(=O)C1CCN(S(=O)(=O)Cc2ccccc2)CC1
23,954,Cc1ccc(Cl)cc1NC(=O)C1CCN(S(C)(=O)=O)c2ccccc2O1 (stereo not given)
24,867,Cn1c(=O)sc2cc(S(=O)(=O)N3CCC(C(=O)NCCCc4ccccc4)CC3)ccc21
25,822,CC(C)C[C@@H](C(=O)N[C@H](C(=O)OC1CCCC1)c1ccccc1)[C@H](O)C(=O)NO
